Data reported in patent US12145927B2 (BRISTOL-MYERS SQUIBB COMPANY, priority 2018, dated 2024).
Values joined by “and” are separate entries in the source; they are usually repeats but may differ in a detail not shown here. Equal entries are not always repeated.

molecular target: T1, human IDO1 (Homo sapiens, UniProt P14902); test: IDO inhibition assay in human IDO1/HEK293 cells (IDO1 HEK Human); type: cell-based; conditions: HEK293 cells stably expressing human IDO1; 20 hours incubation; absorbance at 490 nm after Ehrlich reagent
T1 construct: expressed in transfected cells
T1 sequence (P14902 whole entry): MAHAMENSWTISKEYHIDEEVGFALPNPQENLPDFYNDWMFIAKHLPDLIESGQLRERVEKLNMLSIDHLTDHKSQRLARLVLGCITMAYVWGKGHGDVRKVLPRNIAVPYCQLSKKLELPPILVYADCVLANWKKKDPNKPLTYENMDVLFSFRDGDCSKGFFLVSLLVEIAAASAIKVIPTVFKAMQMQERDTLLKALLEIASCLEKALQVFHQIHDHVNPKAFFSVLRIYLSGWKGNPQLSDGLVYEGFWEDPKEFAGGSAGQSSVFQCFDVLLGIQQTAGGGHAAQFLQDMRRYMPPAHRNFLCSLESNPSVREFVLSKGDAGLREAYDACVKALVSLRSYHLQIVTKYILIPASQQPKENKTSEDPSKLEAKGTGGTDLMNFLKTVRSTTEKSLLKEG
Method: HEK293 cells were transfected with a pCDNA-based mammalian expression vector harboring human IDO1 cDNA (NM 002164.2) by electroporation. They were cultured in medium (DMEM with 10% FBS) containing 1 mg/ml G418 for two weeks. Clones of HEK293 cells that stably expressed human IDO1 protein were selected and expanded for IDO inhibition assay.
The human IDO1/HEK293 cells were seeded at 10,000 cells per 50 μL per well with RPMI/phenol red free media contains 10% FBS in a 384-well black wall clear bottom tissue culture plate (Matrix Technologies LLC) 100 nL of certain concentration of compound was then added to each well using ECHO liquid handling systems. The cells were incubated for 20 hours in 37° C. incubator with 5% CO2.
The compound treatments were stopped by adding trichloroacetic acid (Sigma-Aldrich) to a final concentration at 0.2%. The cell plate was further incubated at 50° C. for 30 minute. The equal volume supernatant (20 μL) and 0.2% (w/v) Ehrlich reagent (4-dimethylaminobenzaldehyde, Sigma-Aldrich) in glacial acetic acid were mixed in a new clear bottom 384-well plate. This plate was then incubated at RT for 30 minute. The absorbance at 490 nm was measured on Envision plate reader.
Compound IC50 values were calculated using the counts of 500 nM of a reference standard treatment as one hundred percent inhibition, and counts of no compound but DMSO treatment as zero percent inhibition.

Question: `Cc1ccc(NC(=O)Nc2cc(-c3ccccc3C(=O)O)cc3c2OC(C)(C)C3c2ccccc2)cc1` (racemic) [Example 124, (±)-2-(2,2-Dimethyl-3-phenyl-7-(3-(p-tolyl)ureido)-2,3-dihydrobenzofuran-5-yl) benzoic acid] was tested. Which IC50 did it give?
Answer: Its IC50 is 77 nM.

Question: For `c1ccc(C2CCCOc3c(Nc4nc5ccccc5o4)cc(-c4ccccc4-c4nnn[nH]4)cc32)cc1` (single isomer, unassigned) [53 (En. 1), N-(7-(2-(1H-tetrazol-5-yl)phenyl)-5-phenyl-2,3,4,5-tetrahydrobenzo[b]oxepin-9-yl) benzo[d] oxazol-2-amine], which IC50 is on record?
Answer: The IC50 was 216 nM.

Question: Which IC50 does the source give for `Cc1ccc(NC(=O)Nc2cc(-c3ccccc3-c3nnn[nH]3)cc3c2O[C@@H](C)[C@H]3c2ccccc2)cc1` (relative stereo) [Example 113, rel-1-((2R,3R)-5-(2-(2H-tetrazol-5-yl)phenyl)-2-methyl-3-phenyl-2,3-dihydrobenzofuran-7-yl)-3-(p-tolyl)urea] here?
Answer: The IC50 was 77 nM.

Question: `O=C(Cc1ccccc1F)Nc1cc(-c2ccccc2-c2nnn[nH]2)cc2c1OCCCC2C1CC1` (single isomer, unassigned) [40 (En. 2), N-(7-(2-(1H-tetrazol-5-yl)phenyl)-5-cyclopropyl-2,3,4,5-tetrahydrobenzo[b]oxepin-9-yl)-2-(2-fluorophenyl)acetamide] was tested. Which IC50 did it give?
Answer: The IC50 was 58.6 nM.

Question: With `O=C(Nc1ccc(Cl)cc1F)Nc1cc(-c2ccccc2-c2nnn[nH]2)cc2c1OCCCC2C1CC1` (single isomer, unassigned) [41 (En. 2), 1-(7-(2-(1H-tetrazol-5-yl)phenyl)-5-cyclopropyl-2,3,4,5-tetrahydrobenzo[b]oxepin-9-yl)-3-(4-chloro-2-fluorophenyl)urea] as the compound, how does the IC50 read?
Answer: Its IC50 is 93.8 nM.

Question: For `C=C[C@H]1Oc2c(NC(=O)Nc3ccc(C)cc3)cc(-c3ccccc3-c3nnn[nH]3)cc2[C@@H]1c1ccccc1` (single isomer, unassigned) [Example 88, 1-((trans)-5-(2-(1H-tetrazol-5-yl)phenyl)-3-phenyl-2-vinyl-2,3-dihydrobenzofuran-7-yl)-3-(p-tolyl)urea], which IC50 is on record?
Answer: The IC50 was 105 nM.

Question: How did the IC50 turn out when `Cc1ccc(NC(=O)Nc2cc(-c3ccccc3-c3nnn[nH]3)cc3c2OCC(O)C(O)C3c2ccccc2)cc1` (racemic) [9 (Rac.), 1-(7-(2-(1H-tetrazol-5-yl)phenyl)-3,4-dihydroxy-5-phenyl-2,3,4,5-tetrahydrobenzo[b]oxepin-9-yl)-3-(p-tolyl)urea] was run?
Answer: Its IC50 is 1040 nM.

Question: How did the IC50 turn out when `Cc1ccc(CC(=O)Nc2cc(-c3ccccc3-c3nnn[nH]3)cc3c2OCCCC3C2CC2)c(F)c1` (single isomer, unassigned) [39 (En. 2)] was run?
Answer: The IC50 was 32.6 nM.

Question: `Cc1ccc(NC(=O)Nc2cc(-c3ccccc3-c3nnn[nH]3)cc3c2OCCC(C)C3c2ccccc2)cc1` (single isomer, unassigned) [Example 45, 1-(7-(2-(1H-tetrazol-5-yl)phenyl)-4-methyl-5-phenyl-2,3,4,5-tetrahydrobenzo[b]oxepin-9-yl)-3-(p-tolyl)urea] was tested. Which IC50 did it give?
Answer: The IC50 was 106 nM and 288 nM.

Question: Which IC50 does the source give for `C=C[C@H]1Oc2c(NC(=O)Nc3ccc(C)cc3)cc(-c3ccccc3-c3nnn[nH]3)cc2[C@@H]1CCC(F)(F)F` (single isomer, unassigned) [Example 130, 1-((trans)-5-(2-(1H-tetrazol-5-yl)phenyl)-3-(3,3,3-trifluoropropyl)-2-vinyl-2,3-dihydrobenzofuran-7-yl)-3-(p-tolyl)urea] here?
Answer: Its IC50 is 40 nM.

Question: With `c1ccc(C2CCCOc3c(Nc4ccc5ccccc5n4)cc(-c4ccccc4-c4nnn[nH]4)cc32)cc1` (single isomer, unassigned) [Example 83, N-(7-(2-(1H-tetrazol-5-yl)phenyl)-5-phenyl-2,3,4,5-tetrahydrobenzo[b]oxepin-9-yl) quinolin-2-amine] as the compound, how does the IC50 read?
Answer: The IC50 was 17.4 nM.

Question: `Cc1ccc(CC(=O)Nc2cc(-c3ccccc3-c3nnn[nH]3)cc3c2OCCC(C)C3c2ccccc2)cc1` (single isomer, unassigned) [Example 48, N-(7-(2-(1H-tetrazol-5-yl)phenyl)-4-methyl-5-phenyl-2,3,4,5-tetrahydrobenzo[b]oxepin-9-yl)-2-(p-tolyl)acetamide] was tested. Which IC50 did it give?
Answer: The IC50 was 12.5 nM.

Question: With `Cc1ccc(-c2noc(Nc3cc(-c4ccccc4-c4nnn[nH]4)cc4c3OCCCC4c3ccccc3)n2)cc1` (single isomer, unassigned) [26 (En. 2), N-(7-(2-(1H-tetrazol-5-yl)phenyl)-5-phenyl-2,3,4,5-tetrahydrobenzo[b]oxepin-9-yl)-3-(p-tolyl)-1,2,4-oxadiazol-5-amine] as the compound, how does the IC50 read?
Answer: The IC50 was 424 nM.

Question: `CC1(C)Oc2c(NC(=O)Nc3ccccc3F)cc(-c3ccccc3C(=O)O)cc2C1c1ccccc1` (racemic) [Example 126, (±)-2-(7-(3-(2-Fluorophenyl)ureido)-2,2-dimethyl-3-phenyl-2,3-dihydrobenzofuran-5-yl)benzoic acid] was tested. Which IC50 did it give?
Answer: The IC50 was 310 nM.

Question: Which IC50 does the source give for `Fc1ccc2nc(Nc3cc(-c4ccccc4-c4nnn[nH]4)cc4c3OCCCC4c3ccccc3)sc2c1` (single isomer, unassigned) [57 (En. 2), N-(7-(2-(1H-tetrazol-5-yl)phenyl)-5-phenyl-2,3,4,5-tetrahydrobenzo[b]oxepin-9-yl)-6-fluorobenzo[d]thiazol-2-amine] here?
Answer: The IC50 was 189 nM.

Question: With `O=C(Nc1nc2ccccc2s1)Nc1cc(-c2ccccc2-c2nnn[nH]2)cc2c1OCCCC2c1ccccc1` (stereo not shown) [Example 18, 1-(7-(2-(1H-tetrazol-5-yl)phenyl)-5-phenyl-2,3,4,5-tetrahydrobenzo[b]oxepin-9-yl)-3-(benzo[d]thiazol-2-yl)urea] as the compound, how does the IC50 read?
Answer: The IC50 was 950 nM.

Question: `Cc1ccc(NC(=O)Nc2cc(-c3ccccc3S(=O)(=O)NC(=O)c3ccccc3)cc3c2OCCCC3c2ccccc2)cc1` (single isomer, unassigned) [60 (En. 1), N-((2-(5-phenyl-9-(3-(p-tolyl)ureido)-2,3,4,5-tetrahydrobenzo[b]oxepin-7-yl)phenyl)sulfonyl)benzamide] was tested. Which IC50 did it give?
Answer: The IC50 was > 6000 nM.

Question: `FC(F)(F)c1cnc(Nc2cc(-c3ccccc3-c3nnn[nH]3)cc3c2OCCCC3c2ccccc2)nc1` (stereo not shown) [Example 54, N-(7-(2-(1H-tetrazol-5-yl)phenyl)-5-phenyl-2,3,4,5-tetrahydrobenzo[b]oxepin-9-yl)-5-(trifluoromethyl)pyrimidin-2-amine] was tested. Which IC50 did it give?
Answer: The IC50 was 432 nM.

Question: Which IC50 does the source give for `O=C(Nc1cc(-c2ccccc2-c2nnn[nH]2)cc2c1OCCCC2c1ccccc1)NC1CC1` (single isomer, unassigned) [23 (En. 2), 1-(7-(2-(1H-tetrazol-5-yl)phenyl)-5-phenyl-2,3,4,5-tetrahydrobenzo[b]oxepin-9-yl)-3-cyclopropylurea] here?
Answer: The IC50 was > 6000 nM.

Question: With `Cc1ccc(CC(=O)Nc2cc(-c3ccccc3-c3nnn[nH]3)cc3c2OCCCC3c2ccccc2)cc1` (single isomer, unassigned) [Example 2-3, N-(7-(2-(1H-tetrazol-5-yl)phenyl)-5-phenyl-2,3,4,5-tetrahydrobenzo[b]oxepin-9-yl)-2-(p-tolyl)acetamide] as the compound, how does the IC50 read?
Answer: Its IC50 is 21.4 nM.

Question: For `c1ccc(C2CCCOc3c(Nc4nc5ccccc5s4)cc(-c4ccccc4-c4nnn[nH]4)cc32)cc1` (single isomer, unassigned) [64 (En. 2), N-(7-(2-(1H-tetrazol-5-yl)phenyl)-5-phenyl-2,3,4,5-tetrahydrobenzo[b]oxepin-9-yl) benzo[d]thiazol-2-amine], which IC50 is on record?
Answer: The IC50 was 17 nM.

Question: `Cc1ccc(NC(=O)Nc2cc(-c3ccccc3-c3nnn[nH]3)cc3c2OCCCC3C)cc1` (stereo not shown) [Example 31, 1-(7-(2-(1H-tetrazol-5-yl)phenyl)-5-methyl-2,3,4,5-tetrahydrobenzo[b]oxepin-9-yl)-3-(p-tolyl)urea] was tested. Which IC50 did it give?
Answer: Its IC50 is 70.8 nM.
